Measurements: PubChem BioAssay AID1918933 (Molecular Pharmacology Branch, DTP, NCI, 2023)

System: 186277-243-T-J2-PDC complex spheroid viability
Test: Anticancer human tumor 186277-243-T-J2-PDC patient-derived colon adenocarcinoma cell line growth inhibition
Details: for IC50: curve of first compound; for viability, T/C: stronger effect = lower value; active = viability on the fitted dose curve at most 10% of control; inactive = the rest
Procedure, shortened: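 Drug combinations with the LSD1 inhibitor iadademstat tested on tumor cells co-cultured as spheroids with endothelial cells and mesenchymal stem cells. Concentrations descended in half-log increments from clinical Cmax or 10 microM.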

[1] = second compound 0.1 µM, first compound 0.0316 µM
[2] = second compound 0.1 µM, first compound 0.1 µM
[3] = second compound 0.316 µM, first compound 0.0316 µM
[4] = second compound 0.316 µM, first compound 0.1 µM
[5] = second compound 1 µM, first compound 0.0316 µM
[6] = second compound 1 µM, first compound 0.1 µM
[7] = second compound 3.16 µM, first compound 0.0316 µM
[8] = second compound 3.16 µM, first compound 0.1 µM
[9] = second compound 10 µM, first compound 0.0316 µM
[10] = second compound 10 µM, first compound 0.1 µM
[11] = second compound 0.1 µM, first compound 0.000949 µM
[12] = second compound 0.1 µM, first compound 0.003 µM
[13] = second compound 0.1 µM, first compound 0.00949 µM
[14] = second compound 0.1 µM, first compound 0.03 µM
[15] = second compound 0.1 µM, first compound 0.0949 µM
[16] = second compound 0.1 µM, first compound 0.3 µM
[17] = second compound 0.316 µM, first compound 0.000949 µM
[18] = second compound 0.316 µM, first compound 0.003 µM
[19] = second compound 0.316 µM, first compound 0.00949 µM
[20] = second compound 0.316 µM, first compound 0.03 µM
[21] = second compound 0.316 µM, first compound 0.0949 µM
[22] = second compound 0.316 µM, first compound 0.3 µM
[23] = second compound 1 µM, first compound 0.000949 µM
[24] = second compound 1 µM, first compound 0.003 µM
[25] = second compound 1 µM, first compound 0.00949 µM
[26] = second compound 1 µM, first compound 0.03 µM
[27] = second compound 1 µM, first compound 0.0949 µM
[28] = second compound 1 µM, first compound 0.3 µM
[29] = second compound 3.16 µM, first compound 0.000949 µM
[30] = second compound 3.16 µM, first compound 0.003 µM
[31] = second compound 3.16 µM, first compound 0.00949 µM
[32] = second compound 3.16 µM, first compound 0.03 µM
[33] = second compound 3.16 µM, first compound 0.0949 µM
[34] = second compound 3.16 µM, first compound 0.3 µM
[35] = second compound 10 µM, first compound 0.000949 µM
[36] = second compound 10 µM, first compound 0.003 µM
[37] = second compound 10 µM, first compound 0.00949 µM
[38] = second compound 10 µM, first compound 0.03 µM
[39] = second compound 10 µM, first compound 0.0949 µM
[40] = second compound 10 µM, first compound 0.3 µM
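Note: 7 day exposure to compounds.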
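Throughout, for viability, T/C: 100% = DMSO vehicle control viability.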

CC(C)CC(NC(=O)C(Cc1ccccc1)NC(=O)c1cnccn1)B(O)O (stereo not given) + NC1CCC(NC2CC2c2ccccc2)CC1
3.67 nM: IC50 (second compound 1 µM)
4.54 nM: IC50 (second compound 3.16 µM)
active: viability, T/C (second compound 0.1 µM, first compound 0.01 µM) 0.46% | viability, T/C [1] 0.13% | viability, T/C [2] 0.28% | viability, T/C (second compound 0.316 µM, first compound 0.01 µM) 0.8% | viability, T/C [3] 0.31% | viability, T/C [4] 0.65% | viability, T/C (second compound 1 µM, first compound 0.01 µM) 0.43% | viability, T/C [5] 0.44% | viability, T/C [6] 0.16% | viability, T/C (second compound 3.16 µM, first compound 0.01 µM) 0.98% | viability, T/C [7] 0.25% | viability, T/C [8] 0.11% | viability, T/C (second compound 10 µM, first compound 0.01 µM) 0.43% | viability, T/C [9] 0.16% | viability, T/C [10] 0.43%
3.95 nM: IC50 (second compound 10 µM)
inactive: viability, T/C (second compound 0.1 µM, first compound 0.000316 µM) 103% | viability, T/C (second compound 0.1 µM, first compound 0.001 µM) 107% | viability, T/C (second compound 0.1 µM, first compound 0.00316 µM) 58.1% | viability, T/C (second compound 0.316 µM, first compound 0.000316 µM) 113% | viability, T/C (second compound 0.316 µM, first compound 0.001 µM) 107% | viability, T/C (second compound 0.316 µM, first compound 0.00316 µM) 61.5% | viability, T/C (second compound 1 µM, first compound 0.000316 µM) 111% | viability, T/C (second compound 1 µM, first compound 0.001 µM) 107% | viability, T/C (second compound 1 µM, first compound 0.00316 µM) 57.4% | viability, T/C (second compound 3.16 µM, first compound 0.000316 µM) 107% | viability, T/C (second compound 3.16 µM, first compound 0.001 µM) 124% | viability, T/C (second compound 3.16 µM, first compound 0.00316 µM) 72.7% | viability, T/C (second compound 10 µM, first compound 0.000316 µM) 111% | viability, T/C (second compound 10 µM, first compound 0.001 µM) 98.5% | viability, T/C (second compound 10 µM, first compound 0.00316 µM) 62%
3.72 nM: IC50 (second compound 0.1 µM)
3.94 nM: IC50 (second compound 0.316 µM)

CCc1c2c(nc3ccc(O)cc13)-c1cc3c(c(=O)n1C2)COC(=O)[C@]3(O)CC + NC1CCC(NC2CC2c2ccccc2)CC1
active: viability, T/C [15] 1.51% | viability, T/C [16] 0.43% | viability, T/C [21] 1.53% | viability, T/C [22] 0.53% | viability, T/C [27] 1.56% | viability, T/C [28] 0.4% | viability, T/C [33] 1.23% | viability, T/C [34] 0.47% | viability, T/C [39] 1.74% | viability, T/C [40] 1.75%
2.11 nM: IC50 (second compound 0.1 µM)
3.63 nM: IC50 (second compound 3.16 µM)
inactive: viability, T/C [11] 63% | viability, T/C [12] 40.7% | viability, T/C [13] 33.6% | viability, T/C [14] 17.5% | viability, T/C [17] 62.7% | viability, T/C [18] 42.2% | viability, T/C [19] 30.1% | viability, T/C [20] 19.3% | viability, T/C [23] 65.7% | viability, T/C [24] 43.1% | viability, T/C [25] 38.1% | viability, T/C [26] 20.4% | viability, T/C [29] 71.2% | viability, T/C [30] 49.2% | viability, T/C [31] 38.2% | viability, T/C [32] 20.8% | viability, T/C [35] 80.1% | viability, T/C [36] 44.5% | viability, T/C [37] 32.6% | viability, T/C [38] 15.5%
2.07 nM: IC50 (second compound 0.316 µM)
2.69 nM: IC50 (second compound 1 µM)
2.87 nM: IC50 (second compound 10 µM)

Nc1ccccc1NC(=O)c1ccc(CNC(=O)OCc2cccnc2)cc1 + NC1CCC(NC2CC2c2ccccc2)CC1
1380 nM: IC50 (second compound 3.16 µM)
inactive: viability, T/C [13] 112% | viability, T/C [14] 96.2% | viability, T/C [15] 95.3% | viability, T/C [16] 110% | viability, T/C (second compound 0.1 µM, first compound 0.949 µM) 69.6% | viability, T/C (second compound 0.1 µM, first compound 3 µM) 12.5% | viability, T/C [19] 112% | viability, T/C [20] 113% | viability, T/C [21] 109% | viability, T/C [22] 96.5% | viability, T/C (second compound 0.316 µM, first compound 0.949 µM) 68.7% | viability, T/C (second compound 0.316 µM, first compound 3 µM) 13.5% | viability, T/C [25] 112% | viability, T/C [26] 113% | viability, T/C [27] 92.8% | viability, T/C [28] 107% | viability, T/C (second compound 1 µM, first compound 0.949 µM) 74.9% | viability, T/C (second compound 1 µM, first compound 3 µM) 13.7% | viability, T/C [31] 118% | viability, T/C [32] 113% | viability, T/C [33] 106% | viability, T/C [34] 108% | viability, T/C (second compound 3.16 µM, first compound 0.949 µM) 67.6% | viability, T/C (second compound 3.16 µM, first compound 3 µM) 12.8% | viability, T/C [37] 106% | viability, T/C [38] 98.7% | viability, T/C [39] 103% | viability, T/C [40] 93.4% | viability, T/C (second compound 10 µM, first compound 0.949 µM) 71.1%
active: viability, T/C (second compound 10 µM, first compound 3 µM) 8.04%
1390 nM: IC50 (second compound 10 µM)
1400 nM: IC50 (second compound 0.316 µM)
1520 nM: IC50 (second compound 1 µM)
1410 nM: IC50 (second compound 0.1 µM)

Nc1ccn(C2OC(CO)C(O)C2(F)F)c(=O)n1 (stereo not given) + NC1CCC(NC2CC2c2ccccc2)CC1
inactive: viability, T/C [11] 25.8% | viability, T/C [12] 17.1% | viability, T/C [13] 16.5% | viability, T/C [14] 15.9% | viability, T/C [15] 15.9% | viability, T/C [16] 15.1% | viability, T/C [17] 22.9% | viability, T/C [18] 18.7% | viability, T/C [19] 16.2% | viability, T/C [20] 15.6% | viability, T/C [21] 16.1% | viability, T/C [22] 15.6% | viability, T/C [23] 26% | viability, T/C [24] 18.6% | viability, T/C [25] 18.1% | viability, T/C [26] 18% | viability, T/C [27] 16.8% | viability, T/C [28] 16.3% | viability, T/C [29] 27.2% | viability, T/C [30] 20.5% | viability, T/C [31] 20.1% | viability, T/C [32] 19.6% | viability, T/C [33] 19.2% | viability, T/C [34] 15.9% | viability, T/C [35] 31.3% | viability, T/C [36] 25.1% | viability, T/C [37] 25.3% | viability, T/C [38] 18.5% | viability, T/C [39] 23.3% | viability, T/C [40] 20.9%
< 0.949 nM: IC50 (second compound 0.1 µM) | IC50 (second compound 0.316 µM) | IC50 (second compound 1 µM) | IC50 (second compound 3.16 µM) | IC50 (second compound 10 µM)

O=C(c1cc(Cc2n[nH]c(=O)c3ccccc23)ccc1F)N1CCN(C(=O)C2CC2)CC1 + NC1CCC(NC2CC2c2ccccc2)CC1
> 10000 nM: IC50 (second compound 0.1 µM) | IC50 (second compound 0.316 µM) | IC50 (second compound 1 µM) | IC50 (second compound 3.16 µM) | IC50 (second compound 10 µM)
inactive: viability, T/C [1] 121% | viability, T/C [2] 121% | viability, T/C (second compound 0.1 µM, first compound 0.316 µM) 117% | viability, T/C (second compound 0.1 µM, first compound 1 µM) 123% | viability, T/C (second compound 0.1 µM, first compound 3.16 µM) 121% | viability, T/C (second compound 0.1 µM, first compound 10 µM) 94% | viability, T/C [3] 119% | viability, T/C [4] 114% | viability, T/C (second compound 0.316 µM, first compound 0.316 µM) 117% | viability, T/C (second compound 0.316 µM, first compound 1 µM) 113% | viability, T/C (second compound 0.316 µM, first compound 3.16 µM) 127% | viability, T/C (second compound 0.316 µM, first compound 10 µM) 84.1% | viability, T/C [5] 111% | viability, T/C [6] 112% | viability, T/C (second compound 1 µM, first compound 0.316 µM) 122% | viability, T/C (second compound 1 µM, first compound 1 µM) 123% | viability, T/C (second compound 1 µM, first compound 3.16 µM) 121% | viability, T/C (second compound 1 µM, first compound 10 µM) 79.1% | viability, T/C [7] 120% | viability, T/C [8] 120% | viability, T/C (second compound 3.16 µM, first compound 0.316 µM) 119% | viability, T/C (second compound 3.16 µM, first compound 1 µM) 132% | viability, T/C (second compound 3.16 µM, first compound 3.16 µM) 124% | viability, T/C (second compound 3.16 µM, first compound 10 µM) 80.5% | viability, T/C [9] 111% | viability, T/C [10] 109% | viability, T/C (second compound 10 µM, first compound 0.316 µM) 114% | viability, T/C (second compound 10 µM, first compound 1 µM) 134% | viability, T/C (second compound 10 µM, first compound 3.16 µM) 109% | viability, T/C (second compound 10 µM, first compound 10 µM) 69.9%
